Assay results: paper PMC3351437, “Skin-Targeted Inhibition of PPAR β/δ by Selective Antagonists to Treat PPAR β/δ – Mediated Psoriasis-Like Skin Disease In Vivo” (PLoS ONE, 2012)
Read-outs that look alike come from different tables or passages of the source. Each block holds one compound with its values, some of them ahead of it.

Columns and labels:
[1] = system: PPAR β/δ mediated psoriasis-like skin disease; assay: Prevention of epidermal hyperplasia, agonist GW501516 and antagonist both topical; assay type: in vivo, PPAR β/δ transgenic mice; conditions: antagonist ointment once per day, GW501516 0.1% ointment five times per week, 20 days
Procedure: (§1) Mice were sacrificed, skin samples obtained and processed for H&E based histology as described. All samples were photographed at 200× magnification. Epidermal thickness was measured for all slides by a blinded observer at perpendicular angle to the basement membrane. […] For each sample, two measurements were taken in two separately photographed non-adjacent sections of the H&E stained skin sample.

[2] = Blood concentration after topical application (UPLC/mass spectrometry); assay type: in vivo, C57Bl/6j wild type mice; conditions: for total amount of detectable compound in blood as fraction of total drug applied: 1 h after topical application, blood volume assumed 7% of body mass
Procedure: (§2) 50 µL of cardiac blood were diluted 1∶2 (v∶v) with milipore water and snap frozen immediately. Previously treated skin segments were shaved, tape-stripped three times to remove residual hair and non-absorbed ointment on the surface, and then snap frozen in liquid nitrogen. Frozen skin was ground and ten times the volume of methanol-water (1∶1 v/v) was added per weight unit of skin. A minimum of 20 mg of skin was used per each sample. Samples were homogenized with a Covaris S2 acoustic homogeniser. For both cardiac blood and skin homogenate, proteins were precipitated by adding 3 volumes of acetonitrile containing a suitable internal standard. All samples were then centrifuged for 10 minutes at 2800 rpm before transfer of 200 µL of supernatant into a 96 well plate and 100 µL of milliQ water added. Calibration curves were constructed in either untreated homogenised skin or blood to cover at least 3 orders of magnitude (1–2000 ng/mL) and extracted as for aforementioned study samples. All cardiac blood, skin samples and standards were then investigated by mass spectrometry as described below. For calculation of total blood volume, mice were weighed and an average blood volume of 7% (mL/g) of body mass was assumed.
(§3) An Acquity ultra high performance liquid chromatography (UPLC) system; consisting of an autosampler, the Acquity UPLC Sample Manager with Sample Organiser, a pump, the Acquity UPLC Binary Solvent Manager, an in-built column oven, a UV detector, the Acquity UPLC Photo Diode Array) and a Quattro Premier XE triple quadrupole mass spectrometer (Waters, UK). […] The analytical column was an Acquity UPLC BEH C18, 2.1 mm i.d. ×50 mm length, 1.7 µm particle size (Waters, UK). No guard column was used, but a vanguard […].
(§4) Mobile phase A was Milli-Q reverse phase de-ionised water with formic acid (0.1%, v∶v), mobile phase B was acetonitrile with formic acid (0.1%, v∶v). Mobile phase was delivered at a flow rate of 0.6 mL/min. […] Finally mobile phase B was returned to 5% over 0.1 min and maintained at this composition for 0.4 min. Total run time 3 min.
(§5) The entire flow was introduced into the Mass spectrometer. The autosampler was set at 4°C and an injection voloume of 5 µL was used (partial loop). […] An in-house proprietary internal standard was used for determination of all 3 analytes.

[3] = Drug solubility in ointment, absence of crystals by polarised microscopy; assay type: physicochemical; conditions: Hydromol ointment with DMSO
Procedure: These included drug incorporation into liquified vehicle at 70°C, pre-disolvement in DMSO, ethanol, isopropanol, polyethyene glycol 300, and olive oil followed by vehicle incorporation, as well as a variety of vehicles (liquid paraffin, Hydromol ointment, aqueous ointment BP). Drug solubility was assessed using a previously reported method relying on the absence of crystals detectable by polarised microscopy.
All PPAR β/δ antagonists were custom-synthesized by AF-Chempharm (UK). […] Compound 3 h was pre-dissolved in DMSO, left at room temperature for 20 min at low agitation and then incorporated into Hydromol ointment using a melamin bowl to yield final concentrations of 0.5% (w/w) 3 h, and 5% (w/w) of DMSO, respectively. […] Vehicle-only contro ointment was prepared exactly as GSK0660 ointment while omitting the chemical itself. Ointments were stored in airtight containers at 4°C in the dark and made fresh once a week.

[4] = Skin concentration after topical application (UPLC/mass spectrometry); assay type: in vivo, C57Bl/6j wild type mice; conditions: for local concentration in skin at steady state: twice daily for seven days, even for the lower dose used (0.2%), 1 h after last application
Procedure: as §2, §3
as §4, with “3 min. […]” for “3 min.”

PPARβ/δ [5] = conditions: in vitro data taken from literature; ref references listed in Figure 1; read-out: EC50 PPARβ/δ competitive antagonism; cited from earlier work
shaved dorsal skin = assay: Skin histology after one week of topical application (inflammatory changes); assay type: in vivo, C57Bl/6j wild type mice; conditions: for number of dermal nuclei per high power field: vs vehicle-only treated skin; for epidermal hyperplasia induced by antagonist: twice daily for one week
Procedure: We next determined the local concentrations in skin at steady state after prolonged topical application. […] Skin samples were then extracted and analysed by mass spectrometry for concentration determination as well as processed for histology. […] 90 min (cf. fig. 2b). […] Infrequently, we noted apoptotic epidermal keratinocytes (inset, middle row of H&E sections). Since these cells were also found in transgenic PPAR β/δ mice treated with the agonist only (figure S1), the exact underlying cause is unclear but unlikely to underlie the treatment effect of the antagonist creams.
Figure 4 Absence of inflammatory changes induced by PPAR β/δ antagonists in skin after topical application. […] Mice were sacrificed 1 h after the last ointment application and skin tissue processed for H&E based histology and mass spectrometry, as described in Methods. Data shown represent average ± s.d. of n = 3 mice per data point (left) treated with GSK (blue columns) or compound 3 h (red). Representative histology sections of all treated mice are shown on right. […] Horizontal bar represents 5 µm.
Mice were sacrificed, skin samples obtained and processed for H&E based histology as described. All samples were photographed at 200× magnification. Epidermal thickness was measured for all slides by a blinded observer at perpendicular angle to the basement membrane. The absence of variable planes of tissue sectioning as a confounder for apparent epidermal thickness was ruled out by verifying visible perpendicular insertion of hair follicles into the epidermis. For each sample, two measurements were taken in two separately photographed non-adjacent sections of the H&E stained skin sample.

other PPAR isoforms = system: other PPAR isoforms; design: method as in references listed in Figure 1 / ref 13; conditions: in vitro data taken from literature, ref references listed in Figure 1 / ref 13, cited from earlier work
PPARβ/δ [6] = conditions: cited from earlier work; for IC50: in vitro data taken from literature, ref references listed in Figure 1, read-out: IC50 PPARβ/δ binding
[7] = Drug quantification in skin and blood of diseased mice (mass spectrometry); assay type: in vivo, PPAR β/δ transgenic mice; conditions: for concentration at 12 h: 12 h after the last cream application
Procedure: as §2, §3, §4, §5

[8] = system: HB-EGF, IL1b, LCE3e/LCE3f expression; assay: Real-time PCR of PPAR β/δ target genes in skin; assay type: in vivo, PPAR β/δ transgenic mice
Excerpt: Skin was processed by removing subcutaneous tissue and small skin pieces were snap frozen in liquid nitrogen. Frozen skin was ground and RNA was extracted using the NucleoSpin RNA/Protein kit from Macherey-Nagel. cDNA synthesis was done with the SuperScript Vilo cDNA synthesis kit from Invitrogen. Gene expression levels were quantified using TaqMan-based real-time PCR using Assays-on-Demand kits obtained from Applied biosystems according to the manufacturer's instruction and quantification performed as calibrated to the internal housekeeping gene GAPDH (LCE3f: Mm02605425, Il1β: Mm01336189, Hb-EGF: Mm00439305).

[9] = system: PPAR β/δ mediated skin disease; assay: Control of skin disease induced by i.p. GW501516, ointment at different frequencies; assay type: in vivo, PPAR β/δ transgenic mice
Procedure: All animal studies reported here were subject to approval of Tayside Research Ethics Committee, and are conducted in accordance with UK Home Office procedures (project licence 60/3800, licence holder JF). Breeding of PPAR β/δ transgenic mice and genotyping were all carried out as described previously. […]
as §1

PPAR β/δ = system: PPAR β/δ; design: method as in PMID 17488971; conditions: cited from earlier work
psoriasis = system: psoriasis; design: method as in PMID 12673084; conditions: cited from earlier work
psoriasis (PASI scores) = system: psoriasis (PASI scores); design: method as in PMID 15479756; conditions: systemic administration; cited from earlier work
[10] = Storage stability at room temperature and light exposure; assay type: physicochemical
[11] = design: method as in PMID 17975020; conditions: cited from earlier work

SMILES: CCCCOc1ccc(-c2ccc(C(=O)O)cc2C)cc1CNC(=O)c1ccc(C(F)(F)F)cc1F [compound 3 h]
psoriasis-like epidermal hyperplasia induced by GW501516 [1]: significantly attenuated
peak systemic concentration compared with reported EC50/IC50 ([2]; 1 h after topical application of ointment): slightly above the in vitro determined EC50 value
total amount of detectable compound in blood as fraction of total drug applied [2]: less than 0.01%
drug concentration up to which the optimised ointment formulation is devoid of drug crystals [3]: up to 2 % (w/w)
local concentration in skin at steady state [4]: high local concentrations
EC50 (PPARβ/δ [5]): 11 nM
number of dermal nuclei per high power field (shaved dorsal skin; one week): unchanged as compared to vehicle-only treated skin
epidermal hyperplasia induced by antagonist (shaved dorsal skin; H&E): neither antagonist produced notable epidermal hyperplasia
Activity on other PPAR isoforms (other PPAR isoforms; listed as Compound 3 h): lack of activity on other PPAR isoforms
Activity on other PPAR isoforms (other PPAR isoforms; listed as Compound 3h): Not active at 1 μM
IC50 (PPARβ/δ [6]): 10 nM
Ki (PPARβ/δ [6]; low reported Ki): 11 nM

tissue level of unmodified drug in lesional skin ([7]; 16 h after the final application): 240 ± 116 nmol/g of tissue
concentration at 16 h ([7]; PPAR β/δ transgenic, mouse, whole blood, topical, inflamed skin, 16 h after last cream application, read-out: concentration in blood at the end of the experiment): 445 ± 429 nM
concentration at 20 days ([2]; C57Bl/6j, mouse, whole blood, topical, healthy mice after 20 days of twice-daily treatment, n = 3): 50.2 ± 25.7 nM
SMILES: O=C(NCCS(=O)(=O)c1ccc(C(F)(F)F)cn1)c1ccc(Cl)cc1 [GSK3787]
expression of PPAR β/δ target genes LCE3f, IL1-beta, and HBEGF ([8]; twice-daily versus three times weekly application (fig. 8b)): suppression
EC50 (PPARβ/δ [5]): 100 nM
range of therapeutic activity ([9]; H&E of treated area and its edge (figure S2)): efficacy was limited to the area of cream application
reducing the amount of dermal infiltrate ([9]; even when applied only 3× per week (fig. 7b)): as effective as GSK0660
preventing epidermal hyperplasia ([9]; even when applied only 3× per week, comparator twice daily (fig. 7a)): as effective as GSK0660
Activity on other PPAR isoforms (other PPAR isoforms): Active on PPARγ at 1 μM
mode of receptor inactivation (PPARβ/δ [6]): irreversibly inactivates the receptor by forming a covalent bond
IC50 (PPARβ/δ [6]): 6.7 nM

SMILES: CN(CCOc1ccc(CC2SC(=O)NC2=O)cc1)c1ccccn1 (centres unmarked) [rosiglitazone]
activation of PPAR β/δ (PPAR β/δ): can also activate PPAR β/δ
effect of topical application on psoriasis (psoriasis): showed no effect

SMILES: CCc1ccc(CCOc2ccc(CC3SC(=O)NC3=O)cc2)nc1 (centres unmarked) [pioglitazone]
effect on PASI scores (psoriasis (PASI scores)): no marked reduction of PASI scores

SMILES: COC(=O)c1sccc1S(=O)(=O)Nc1ccc(Nc2ccccc2)cc1OC [GSK0660]
concentration at 12 h ([7]; PPAR β/δ transgenic, mouse, skin, topical, after 20 days of treatment, read-out: concentration in skin tissue): 48 ± 18 ng/g
concentration at 12 h ([7]; PPAR β/δ transgenic, mouse, whole blood, topical, after 20 days, threshold of detection, read-out: concentration in blood): < 25 nM
stability on storage (colour change) [10]: visible colour change from yellow to green
total amount of detectable compound in blood as fraction of total drug applied [2]: less than 0.01%
drug accumulation in blood ([2]; blood measured for 24 h after drug application): no evidence of drug accumulation
total drug detectable in blood as fraction of total drug applied ([2]; over 24 h after drug application (figure 2b)): less than 0.01%
drug concentration up to which the optimised ointment formulation is devoid of drug crystals [3]: up to 2 % (w/w)
half-life ([4]; C57Bl/6j, mouse, topical, 42 mg ointment applied to dorsal skin (figure 3)): ~1.5 h
local concentration in skin at steady state [4]: high local concentrations
reversal of IL1b expression ([8]; qPCR, oral GW501516, ointment twice daily three weeks): only observed using the ointment containing GSK0660
bioavailability upon systemic administration [11]: lack of bioavailability upon systemic administration
apoptotic epidermal keratinocytes (shaved dorsal skin; one week, H&E): apoptotic looking cells
number of dermal nuclei per high power field (shaved dorsal skin; one week): unchanged as compared to vehicle-only treated skin
epidermal hyperplasia induced by antagonist (shaved dorsal skin; H&E): neither antagonist produced notable epidermal hyperplasia
Activity on other PPAR isoforms (other PPAR isoforms): Not active at 10 μM

systemic absorption relative to the antagonists ([2]; 1 h post application, ointment concentrated 10-fold less (0.1%)): 100 fold
peak serum concentration ([2]; 1 h post topical application, 0.1% ointment): 400 nM
SMILES: Cc1cc(SCc2sc(-c3ccc(C(F)(F)F)cc3)nc2C)ccc1OCC(=O)O [GW501516]

SMILES: CCCCCCCCCCCCCCSCC(=O)O [tetradecylthioacetic acid (TTA), tetradecylthioacetic acid]
effect of topical application on psoriasis (psoriasis): showed no effect
